pIC50: −log10 of the molar value.
Target: T1, HCV NS3 helicase (Hepatitis C virus genotype 1b, UniProt P26663)
T1 construct: full-length NS3 (1-631), purified at Array BioPharma
Experiment: HCV Helicase Prompt FRET Assay (Example A)
Assay type: biochemical
Conditions: HCV NS3 helicase; tables do not say whether Example A or Example B assay; read-out: IC50 Activity
Method: Test compounds were diluted to 2.5 mM by adding 6 uL of a 10 mM solution of the compound to 18 uL of DMSO in a 384-well Costar polypropylene plate. Serial dilutions (2.5×) were performed in the plate using DMSO as the diluent. 1 ul of solution was transferred from each well to a new 384-well Costar polypropylene plate.
A 2× mixture was prepared containing 100 nM helicase substrate, 500 nM helicase capture strand (CS), and 600 μM ATP by diluting stock solutions with assay buffer consisting of 25 mM MOPS, pH 7.0, and 1.5 mM MgCl2, 0.005% (v/v) Triton X-100. Stock helicase substrate was prepared by annealing a FAM-labeled oligonucleotide to a BHQ-1 labeled oligonucleotide, which were both custom synthesized and HPLC-purified at Biosearch Technologies. The FAM-labeled and BHQ-labeled oligonucleotide had the following sequences:
The helicase capture strand was custom synthesized and purified at Integrated DNA Technologies. The helicase capture strand had the following sequence:
The ATP solution was prepared in MilliQ water, pH adjusted to approximately 7 with NaOH. ATP powder was obtained from Sigma (A-7699). The concentration was determined via A260 (ext. coeff=15,400 M^−1cm^−1).
11.5 μL of assay buffer was added to all wells of the plate containing luL of test compound. 5 μL of the Compound/assay buffer mixture was added to a black polystyrene 384-well Proxiplate. A 4× Enzyme solution was prepared by diluting enzyme stock containing full-length NS3 (1-631), purified at Array BioPharma, with assay buffer. 5 μL of the 4× Enzyme solution was added to the Proxiplate and incubated for 5 minutes (for control wells lacking enzyme, assay buffer was used instead). 10 μL of 2× substrate/CS/ATP mixture was then added to all wells of Proxiplate. The final assay conditions included 50 nM Substrate, 250 nM Capture Strand, 300 μM ATP, 5 or 6 nM Enzyme, and 2% (v/v) DMSO. The reaction proceeded for 70 cycles (˜30 min.) on an Envision at room temperature. The plate was read using the Envision (top mirror=FITC; Excitation filter=FITC 485; Emission filter=FITC 535). The fluorescence intensity was recorded for a total of 30 minutes. The initial rates of the reactions was calculated and used to calculate IC50 values. The IC50 curve fitting was performed using either a 4-parameter or 5-parameter logistic equation.

T1 sequence (P26663 1027-1657): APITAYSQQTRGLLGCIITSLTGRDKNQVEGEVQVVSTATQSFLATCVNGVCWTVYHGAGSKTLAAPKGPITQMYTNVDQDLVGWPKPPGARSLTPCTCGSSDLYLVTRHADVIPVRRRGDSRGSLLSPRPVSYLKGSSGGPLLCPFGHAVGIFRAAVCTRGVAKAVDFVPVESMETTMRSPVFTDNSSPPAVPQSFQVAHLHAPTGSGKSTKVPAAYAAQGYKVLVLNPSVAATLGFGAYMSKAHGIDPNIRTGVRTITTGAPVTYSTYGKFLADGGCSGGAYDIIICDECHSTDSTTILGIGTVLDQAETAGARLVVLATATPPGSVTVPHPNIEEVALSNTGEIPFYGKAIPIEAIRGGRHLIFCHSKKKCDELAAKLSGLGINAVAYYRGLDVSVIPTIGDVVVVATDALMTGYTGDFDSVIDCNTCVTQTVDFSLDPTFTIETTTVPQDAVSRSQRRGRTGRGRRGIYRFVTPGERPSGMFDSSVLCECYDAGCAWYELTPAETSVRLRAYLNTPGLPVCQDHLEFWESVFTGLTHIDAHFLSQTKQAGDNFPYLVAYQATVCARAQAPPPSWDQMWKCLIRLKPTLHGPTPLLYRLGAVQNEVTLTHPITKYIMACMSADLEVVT

Row | Structure (SMILES) | pIC50
1 | O=C(O)Cc1c(C(=O)c2cccc(Oc3ccccc3)c2)n(CC2CC2)c2ccccc12 [Example 221] | > 5.00
2 | O=C(O)Cc1c(C(=O)c2cccc(Oc3ccccc3)c2)n(Cc2ccccc2)c2ccccc12 [Example 222] | > 5.00
3 | O=C(O)Cc1c(C(=O)c2ccc(-c3ccccc3)cc2)oc2ccccc12 [Example 223] | 4.30 to 5.00
4 | O=C(O)Cc1c(C(=O)c2ccc(-c3ccccc3)cc2)sc2ccccc12 [Example 224] | > 5.00
5 | O=C(O)Cc1c(C(=O)c2cccc(-c3cccc(C(F)(F)F)c3)c2)[nH]c2ccccc12 [Example 225] | 4.30 to 5.00
6 | CCOc1cccc(-c2cccc(C(=O)c3[nH]c4ccccc4c3CC(=O)O)c2)c1 [Example 226] | 4.30 to 5.00
7 | CC(C)c1cccc(-c2cccc(C(=O)c3[nH]c4ccccc4c3CC(=O)O)c2)c1 [Example 227] | > 5.00
8 | CSc1cccc(-c2cccc(C(=O)c3[nH]c4ccccc4c3CC(=O)O)c2)c1 [Example 228] | 4.30 to 5.00
9 | COc1cccc(-c2cccc(C(=O)c3[nH]c4ccccc4c3CC(=O)O)c2)c1 [Example 229] | 4.30 to 5.00
10 | O=C(O)Cc1c(C(=O)c2cccc(-c3cccc(Cl)c3Cl)c2)[nH]c2ccccc12 [Example 230] | > 5.00
11 | O=C(O)Cc1c(C(=O)c2cccc(-c3cc(Cl)cc(Cl)c3)c2)[nH]c2ccccc12 [Example 231] | > 5.00
12 | O=C(O)Cc1c(C(=O)c2cccc(-c3cccc(Cl)c3)c2)[nH]c2ccccc12 [Example 232] | 4.30 to 5.00
13 | Cc1cc(C)cc(-c2cccc(C(=O)c3[nH]c4ccccc4c3CC(=O)O)c2)c1 [Example 233] | > 5.00
14 | O=C(O)Cc1c(C(=O)c2cccc(-c3ccccc3Cl)c2)[nH]c2ccccc12 [Example 234] | 4.30 to 5.00
15 | O=C(O)Cc1c(C(=O)c2cccc(-c3ccc(CO)cc3)c2)[nH]c2ccccc12 [Example 235] | 4.30 to 5.00
16 | COc1ccc(-c2cccc(C(=O)c3[nH]c4ccccc4c3CC(=O)O)c2)cc1 [Example 236] | 4.30 to 5.00
17 | O=C(O)Cc1c(C(=O)c2cccc(-c3cccc(OC(F)(F)F)c3)c2)[nH]c2ccccc12 [Example 237] | 4.30 to 5.00
18 | O=C(O)Cc1c(C(=O)c2cccc(-c3ccnc(Cl)c3)c2)[nH]c2ccccc12 [Example 238] | 4.30 to 5.00
19 | O=C(O)Cc1c(C(=O)c2cccc(-c3ccc(Cl)cc3Cl)c2)[nH]c2ccccc12 [Example 239] | > 5.00
20 | O=C(O)Cc1c(C(=O)c2cccc(-c3ccc(Cl)c(Cl)c3)c2)[nH]c2ccccc12 [Example 240] | > 5.00
21 | O=C(O)Cc1c(C(=O)c2cccc(-c3cccc(Cl)c3Cl)c2)oc2ccccc12 [Example 241] | > 5.00

Row | Structure (SMILES) | pIC50
22 | O=C(O)Cc1c(C(=O)c2cccc(-c3ccc(Cl)cc3Cl)c2)oc2ccccc12 [Example 242] | > 5.00
23 | O=C(O)Cc1c(C(=O)c2cccc(-c3ccc(Cl)c(Cl)c3)c2)oc2ccccc12 [Example 243] | > 5.00
24 | O=C(O)Cc1c(C(=O)c2cccc(-c3cc(Cl)cc(Cl)c3)c2)oc2ccccc12 [Example 244] | > 5.00
25 | CC(C)c1cccc(-c2cccc(C(=O)c3oc4ccccc4c3CC(=O)O)c2)c1 [Example 245] | > 5.00
26 | O=C(O)Cc1c(C(=O)c2ccc(-c3ccncc3)cc2)[nH]c2ccccc12 [Example 247] | 4.30 to 5.00
27 | O=C(O)Cc1c(C(=O)c2ccc(Br)cc2)n(Cc2ccccc2)c2ccccc12 [Example 248] | 4.30 to 5.00
28 | O=C(O)Cc1c(C(=O)Cc2ccc(-c3ccccc3)cc2)[nH]c2ccccc12 [Example 249] | 4.30 to 5.00
29 | Cn1c(C(=O)Cc2ccc(-c3ccccc3)cc2)c(CC(=O)O)c2ccccc21 [Example 250] | 4.30 to 5.00
30 | O=C(O)Cc1c(C(=O)C(Cc2ccccc2)c2ccc(-c3ccccc3)cc2)[nH]c2ccccc12 (stereo not drawn) [Example 251] | > 5.00
31 | O=C(O)Cc1c(C(=O)c2ccc(-c3ccc(Cl)cc3)cc2)[nH]c2ccccc12 [Example 252] | 4.30 to 5.00
32 | O=C(O)Cc1c(C(=O)c2ccc(-c3cccc(Cl)c3)cc2)[nH]c2ccccc12 [Example 253] | 4.30 to 5.00
33 | O=C(O)Cc1c(C(=O)c2ccc(-c3ccccc3Cl)cc2)[nH]c2ccccc12 [Example 254] | > 5.00
34 | O=C(O)Cc1c(C(=O)c2ccc(-c3ccccc3Cl)cc2)[nH]c2ccccc12 [Example 255] | 4.30 to 5.00
35 | Cc1ccc(-c2ccc(C(=O)c3[nH]c4ccccc4c3CC(=O)O)cc2)cc1 [Example 256] | 4.30 to 5.00
36 | O=C(O)Cc1c(C(=O)c2ccc(-c3ccc(Cl)c(Cl)c3)cc2)[nH]c2ccccc12 [Example 257] | > 5.00
37 | O=C(O)Cc1c(C(=O)Cc2ccccc2)n(Cc2ccccc2)c2ccccc12 [Example 258] | 4.30 to 5.00
38 | O=C(O)Cc1c(C(=O)Cc2ccc(F)cc2)n(Cc2ccccc2)c2ccccc12 [Example 259] | 4.30 to 5.00
39 | O=C(O)Cc1c(C(=O)Cc2ccccc2Br)n(Cc2ccccc2)c2ccccc12 [Example 260] | > 5.00
40 | Cc1cc(-c2ccc(C(=O)c3[nH]c4ccccc4c3CC(=O)O)cc2)ccc1Cl [Example 261] | > 5.00
41 | Cc1ccc(-c2ccc(C(=O)c3[nH]c4ccccc4c3CC(=O)O)cc2)cc1C [Example 262] | 4.30 to 5.00
42 | NC(=O)c1cccc(-c2ccc(C(=O)c3[nH]c4ccccc4c3CC(=O)O)cc2)c1 [Example 263] | 4.30 to 5.00

Other lines, results leading:

Row | pIC50 | Structure (SMILES)
43 | 4.30 to 5.00 | O=C(O)Cc1c(C(=O)c2ccc(-c3cccc(CO)c3)cc2)[nH]c2ccccc12 [Example 264]
44 | 4.30 to 5.00 | NC(=O)c1ccc(-c2ccc(C(=O)c3[nH]c4ccccc4c3CC(=O)O)cc2)cc1 [Example 265]
45 | 4.30 to 5.00 | O=C(O)Cc1c(C(=O)c2ccc(-c3ccc(C(=O)O)cc3)cc2)[nH]c2ccccc12 [Example 266]
46 | > 5.00 | Cc1ccc(-c2ccc(C(=O)c3[nH]c4ccccc4c3CC(=O)O)cc2)cc1Cl [Example 267]
47 | > 5.00 | CC(C)(C)OC(=O)NCc1cccc(-c2ccc(C(=O)c3[nH]c4ccccc4c3CC(=O)O)cc2)c1 [Example 268]
48 | 4.30 to 5.00 | O=C(O)Cc1c(C(=O)c2ccc(-c3ccccc3C(F)(F)F)cc2)[nH]c2ccccc12 [Example 269]
49 | 4.30 to 5.00 | O=C(O)Cc1c(C(=O)c2ccc(-c3ccccc3Br)cc2)[nH]c2ccccc12 [Example 270]
50 | 4.30 to 5.00 | CSc1ccccc1-c1ccc(C(=O)c2[nH]c3ccccc3c2CC(=O)O)cc1 [Example 271]
51 | > 5.00 | O=C(O)Cc1c(C(=O)c2ccc(-c3ccc(Cl)cc3Cl)cc2)[nH]c2ccccc12 [Example 272]
52 | 4.30 to 5.00 | O=C(O)Cc1c(C(=O)c2ccc(-c3c(Cl)cccc3Cl)cc2)[nH]c2ccccc12 [Example 273]
53 | > 5.00 | O=C(O)Cc1c(C(=O)c2ccc(-c3cccc(Cl)c3Cl)cc2)[nH]c2ccccc12 [Example 274]
54 | > 5.00 | O=C(O)Cc1c(C(=O)c2ccc(-c3ccccc3Cl)cc2)[nH]c2ccc(Br)cc12 [Example 275]
55 | 4.30 to 5.00 | Cn1c(Cc2ccc(-c3ccccc3)cc2)c(CC(=O)O)c2ccccc21 [Example 276]
56 | 4.30 to 5.00 | O=C(O)Cc1c(Cc2ccc(-c3ccccc3)cc2)n(Cc2ccccc2)c2ccccc12 [Example 277]
57 | > 5.00 | O=C(O)Cc1c(Cc2ccc(-c3ccccc3)cc2)n(CC2CC2)c2ccccc12 [Example 278]
58 | > 5.00 | O=C(O)Cc1c(Cc2ccc(-c3ccccc3Cl)cc2)[nH]c2ccccc12 [Example 279]
59 | > 5.00 | O=C(O)Cc1c(Cc2ccc(-c3ccc(Cl)c(Cl)c3)cc2)[nH]c2ccccc12 [Example 280]
60 | > 5.00 | Cc1cc(-c2ccc(Cc3[nH]c4ccccc4c3CC(=O)O)cc2)ccc1Cl [Example 281]
61 | > 5.00 | Cc1ccc(-c2ccc(Cc3[nH]c4ccccc4c3CC(=O)O)cc2)cc1C [Example 282]
62 | 4.30 to 5.00 | Cc1ccccc1-c1ccc(Cc2[nH]c3ccccc3c2CC(=O)O)cc1 [Example 283]
63 | 4.30 to 5.00 | COc1ccccc1-c1ccc(Cc2[nH]c3ccccc3c2CC(=O)O)cc1 [Example 284]
64 | > 5.00 | O=C(O)Cc1c(Cc2ccc(-c3ccccc3C(F)(F)F)cc2)[nH]c2ccccc12 [Example 285]
65 | 4.30 to 5.00 | O=C(O)Cc1c(Cc2ccc(-c3ccccc3F)cc2)[nH]c2ccccc12 [Example 286]
66 | > 5.00 | O=C(O)Cc1c(Cc2ccc(-c3ccccc3Br)cc2)[nH]c2ccccc12 [Example 287]
67 | > 5.00 | CSc1ccccc1-c1ccc(Cc2[nH]c3ccccc3c2CC(=O)O)cc1 [Example 288]
68 | > 5.00 | O=C(O)Cc1c(Cc2ccc(-c3ccc(Cl)cc3Cl)cc2)[nH]c2ccccc12 [Example 289]
69 | > 5.00 | O=C(O)Cc1c(Cc2ccc(-c3cccc(Cl)c3Cl)cc2)[nH]c2ccccc12 [Example 290]

Source: patent US20090047246A1, “NOVEL INHIBITORS OF HEPATITIS C VIRUS REPLICATION” (InterMune, Inc., priority 2007, published 2009)
